US20050215562A1, “Methods for treating protein aggregation disorders” (priority 2003, published 2005)

Tests used:
NAC peptide [1] = target: T1, NAC peptide (Homo sapiens, UniProt P37840); experiment: Circular dichroism (CD) analysis of NAC peptide conformation after incubation with test compounds (fibrillogenesis assay); format: biochemical; parameters: key to CD Result (NAC conformation observed): Random Coil: signifies that the NAC in the sample was observed to have been maintained in its original random coil conformation indicating that the compound coincubated with NAC is active; signifies that the compound was not able to prevent the shift from random coil to β-sheet; β-sheet/β-turn: signifies that the compound was not able to prevent the shift from random coil to β-sheet; Transition: signifies that the NAC was observed to be in the process of converting from random coil to β-sheet indicating that the compound was able to slow down the conformational change and indicates activity; details: for CD Result (NAC conformation observed): 125 μL of 40 μM NAC peptide with 125 μL of 200 μM test compound, pH 7.4, 37° C., conformations over repeated trials; for Activity (CD): active if it prevents the transition to β-turn/β-sheet in 50% or more of the trials; for Activity: active trials / trials: number of CD trials in which transition to β-turn/β-sheet was prevented, over trials run
T1 construct: a 35 amino acid peptide corresponding to residues 61 to 95 of the α-synuclein protein; made in house; host or cells: chemical solid-phase peptide synthesis (Fmoc), not expressed
Method: 2 mM Solutions were prepared in TBSA buffer (Tris 0.02 M, NaCl 0.15 M, NaN3 0.005%, pH 7.4) and stored at 4° C. For the assays, compounds were diluted to the desired concentrations in TBSAE buffer (Tris 0.02 M, NaCl 0.15 M, NaN3 0.005%, EDTA 100 μM, pH 7.4) and combined with the NAC peptides.
Fibrillogenesis assays were employed to identify test compounds that inhibit NAC's ability to assemble into fibers. Following removal of HFIP by evaporation under N2 gas, 20 μM NAC peptide is incubated in the assay buffer (0.02M Tris, 0.15 M NaCl, 0.005% NaN3, 100 uM EDTA) at 37° C. in a Perkin-Elmer HTS 7000 plus microplate reader with shaking for 1 minute every twenty minutes. The presence of fibers can be monitored by three different methods.
The following assays were set up in clear polystyrene 96 well microplates by combining 125 μL of 40 μM NAC peptide with 125 μL of 200 μM test compound in 0.02M Tris, 0.15 M NaCl, 0.005% NaN3, […]. The microplates were sealed with a plastic sheet and incubated at 37° C. in a Perkin-Elmer HTS 7000 microplate reader with shaking for 1 minute, every 20 minutes. • Thioflavin T Analysis. To perform this assay 5 μM Thioflavin T is added to the NAC assembly conditions described above. The fluorescence is measured at 430 excitation/485 emission every twenty minutes with a Perkin-Elmer HTS microplate reader for the duration of the assay. […] This assay allows for the identification of compounds that can inhibit this increase in fluorescence upon incubation. • Turbidity Analysis. Alternatively, NAC peptide that has been incubated with test compounds in the appropriate assembly conditions can be analyzed by reading the absorbance at 405 nm to follow the turbidity of the solution which is also an indication of the formation of aggregates. • Circular Dichroism (CD) Analysis. […] This assay allows for the identification of compounds that can prevent NAC from adopting a β-sheet/β-turn conformation upon incubation. • At the appropriate time point, during the incubation, the test solutions were transferred to 0.1-cm path length quartz cuvettes and scanned by CD spectroscopy between 190 and 260 nm, with a resolution of 0.1 nm and a bandwidth of 1 nm using a Jasco J-715 spectropolarimeter at 37° C. […] At the time point at which CD scans are performed a 3 μl aliquot is removed from the sample, spotted onto a Formvar grid and then negatively stained with 4% uranyl acetate. The grids were examined for the presence of fibrils and amorphous aggregates using a JOEL 2000 transmission electron microscope at a 25,000 × magnification. This assay can be used to confirm the absence of fibers in the presence of compounds which inhibit NAC assembly by ThT and CD. The final results were obtained by averaging 10 complete sectors.
For compounds that have been tested multiple times, a compound is classified as active if it prevents the transition to β-turn/β-sheet in 50% or more of the trials.

NAC peptide [2] = target: T1, NAC peptide; experiment: Binding of compounds to NAC peptide by electrospray mass spectrometry; details: area of bound NAC-compound complex peaks divided by area of unbound NAC peaks; 5:1 compound:NAC, pH 7.4, 6.6% EtOH
Method: The ability of the compounds of the present invention to bind to NAC peptide in aqueous solution was evaluated. The binding ability correlates to the intensities of the peptide-compound complex peaks observed by the Electrospray Mass Spectrum. Millipore distilled deionized water was used to prepare all aqueous solutions. For pH determination a Beckman (Φ36 pH meter fitted with a Corning Semi-Micro Combination pH Electrode was employed.
The optimal cone voltage was determined to be 20V.
Mass spectrometry: Mass spectrometric analysis was performed using a Waters ZQ 4000 mass spectrometer equipped with a Waters 2795 sample manager. MassLynx 4.0 (earlier by MassLynx 3.5) was used for data processing and analysis. Test compounds were mixed with disaggregated peptides in aqueous media (6.6% EtOH) at a 5:1 ratio (20 μM NAC: 100 μM of test compound or 40 μM NAC : 200 μM of test compound). The pH of the mixture was adjusted to 7.4 (±0.2) using 0.1% NaOH (3-5 μL). Periodically, NAC peptide solution at 20 μM or 40 μM was also prepared in the same fashion and run as control. The spectra were obtained by introducing the solutions to the electrospray source by direct infusion using a syringe pump at a flow rate of 25 μl/min, and scanning from 100 to 2100 Da in the positive mode. The scan time was 0.9 sec per scan with an inter-scan delay of 0.1 sec and the run time was 5 min for each sample. All the mass spectra were sum of 300 scans. The desolvation and source temperature was 70° C. and the cone and capillary voltage were maintained at 20 V and 3.2 kV respectively.
The total area under the peaks for the bound NAC-compound complex divided by total area under the peaks for unbound NAC was determined for each compound tested.

CD Result (NAC conformation observed) (NAC peptide [1])	Activity (CD) (NAC peptide [1])	Activity: active trials / trials (NAC peptide [1])	Compound	Binding Strength (NAC peptide [2])
Random Coil β-sheet	Yes	½	O=S(=O)(O)CCCCS(=O)(=O)O [compound 1]	− (None; when the total binding is between 30% and 0%)
Random Coil TRansition	Yes	2/2	O=S(=O)(O)OCCCOS(=O)(=O)O [compound 2]	− (None; when the total binding is between 30% and 0%)
β-turn	No	0/2	NCCCOS(=O)(=O)O [compound 4]	++ (Moderate; when the total binding is between 120% and 70%)
β-sheet	No	0/2	NCCS(=O)(=O)O [compound 5]	+ (Weak; when the total binding is between 70% and 30%)
β-turn transition	Yes	½	NCCCCS(=O)(=O)O [compound 6]	+++ (Strong; when the total binding is 120% and higher)
β- turn/βsheet Random coil Transition	Yes	2/4	NCCCCS(=O)(=O)O [compound 7]	++ (Moderate; when the total binding is between 120% and 70%)
Random Coil	Yes	4/4	CCCCCCCCCCCCS(C)(C)CCCS(C)(=O)=O [compound 9]	− (None; when the total binding is between 30% and 0%)
Random Coil	Yes	5/5	CCCCCCCCCCCCCCS(C)(C)CCCS(=O)(=O)O [compound 10]	+ (Weak; when the total binding is between 70% and 30%)
β-turn Transition	No	⅓	O=S(=O)(O)CCCNCCc1c[nH]c2ccccc12 [compound 17]	–
β-sheet/β- turn	No	0/2	O=C1NCCCC[C@@H]1NCCCS(=O)(=O)O [compound 18]	–
Random Coil β-turn	Yes	½	CC(C)(C)NCCCS(C)(=O)=O [compound 19]	–
β-turn	No	0/2	CCCCCCNCCCS(=O)(=O)O [compound 20]	–
β-sheet/β- turn Transition	No	⅓	O=S(=O)(O)CC(O)CNC1CCCCC1 (stereo not drawn) [compound 21]	–
Transition β-turn	No	⅔	O=S(=O)(O)CCCNC(Cc1ccccc1)c1ccccc1 (stereo not drawn) [compound 22]	–
Random Coil β-sheet	Yes	½	CC(CCNC12C[C@H]3C[C@@H](C1)C[C@@H](C2)C3)S(=O)(=O)O (stereo partly drawn) [compound 23]	–
Random Coil	Yes	2/2	O=S(=O)(O)CC(O)CNC12C[C@H]3C[C@@H](C1)C[C@@H](C2)C3 (stereo partly drawn) [compound 24]	–
Random Coil	Yes	2/2	O=S(=O)(O)CC(O)CNC1C2CC3CC(C2)CC1C3 (stereo not drawn) [compound 25]	–
Transition β-turn	Yes	½	O=S(=O)(O)CCCNC12C[C@H]3C[C@@H](C1)C[C@@H](C2)C3 [compound 26]	–
β-sheet/β- turn	No	0/2	CCCC(CO)NCCC(C)S(=O)(=O)O (stereo not drawn) [compound 27]	–
β-turn/β- sheet	No	0/3	CC(C)(C)NCCCCS(=O)(=O)O [compound 28]	–
Random Coil β-sheet/β- turn	Yes	½	CC(C)CCNCC(O)CS(=O)(=O)O (stereo not drawn) [compound 33]	–
Random Coil β-sheet	Yes	½	CC1CC(NCCCS(=O)(=O)O)CC(C)(C)C1 (stereo not drawn) [compound 34]	–
β-turn	No	0/2	CC(C)(C)C1CCC(NCCCS(=O)(=O)O)CC1 (stereo not drawn) [compound 35]	–
β-sheet	No	0/1	O=C[C@H](Cc1ccccc1)NCCCS(=O)(=O)O [compound 36]	–
β-sheet Transition	Yes	½	O=C[C@@H](Cc1ccccc1)N(O)CCCS(=O)(=O)O [compound 37]	–

Compound	CD Result (NAC conformation observed) (NAC peptide [1])	Activity (CD) (NAC peptide [1])	Activity: active trials / trials (NAC peptide [1])	Binding Strength (NAC peptide [2])
NCCOS(=O)(=O)O [compound 3]	β- turn/βsheet	No	0/2	− (None; when the total binding is between 30% and 0%)
CC(CC[N+]12CCC(CC1)CC2)S(=O)(=O)O (stereo not drawn) [compound 29]	β-turn	No	0/3	–
O=S(=O)(O)CCCC[N+]12CCC(CC1)CC2 [compound 30]	Random Coil β-sheet/β- turn	Yes	2/4	–
O=S(=O)([O-])CC(O)C[N+]12CCC(CC1)CC2 (stereo not drawn) [compound 31]	β-sheet/β- turn α-helix	No	⅓	–
O=S(=O)(O)CCC[N+]12CCC(CC1)CC2 [compound 32]	β-sheet/β- turn Random coil	No	¼	–
